The compounds below were run on tobacco budworm (Heliothis virescens [Fabricius]) (assay: surface-treated diet test against tobacco budworm). Settings: 0.25 millimolar on the surface of the diet; second instar larvae; five-day exposure.
Assay type: in vivo
Procedure: Candidate insecticides were evaluated for activity against the tobacco budworm (Heliothis virescens [Fabricius]) in a surface-treated diet test.
In this test one mL of molten (65-70° C.) wheat germ-based artificial diet was pipetted into each well of a four by six (24 well) multi-well plate (ID# 430345-15.5 mm dia.×17.6 mm deep; Corning Costar Corp., One Alewife Center, Cambridge, Mass. 02140). The diet was allowed to cool to ambient temperature before treatment with candidate insecticide.
For a determination of insecticidal activity, solutions of the candidate insecticides were prepared for testing using a Packard 204DT Multiprobe® Robotic System (Packard Instrument Company, 800 Research Parkway, Meriden, Conn. 06450), in which the robot first diluted a standard 50 millimolar DMSO solution of candidate insecticide with a 1:1 water/acetone solution (V/V) in a ratio of 1:7 stock solution to water/acetone. The robot subsequently pipetted 40 microliters of the so-prepared solution onto the surface of the diet in each of three wells in the 24 multi-well plate. The process was repeated with solutions of seven other candidate insecticides. Once treated, the contents of the multi-well plate were allowed to dry, leaving 0.25 millimoles of candidate insecticide on the surface of the diet, or a concentration of 0.25 millimolar. Appropriate untreated controls containing only DMSO on the diet surface were also included in this test.
For evaluations of the insecticidal activity of a candidate insecticide at varying rates of application, the test was established as described above using sub-multiples of the standard 50 millimolar DMSO solution of candidate insecticide. For example, the standard 50 millimolar solution was diluted by the robot with DMSO to give 5, 0.5, 0.05, 0.005, 0.0005 millimolar, or more dilute solutions of the candidate insecticide. In these evaluations there were six replicates of each rate of application placed on the surface of the diet in the 24 multi-well plate, for a total of four rates of application of candidate insecticide in each plate.
In each well of the test plate was placed one second instar tobacco budworm larvea, each weighing approximately five milligrams. After the larvae were placed in each well, the plate was sealed with clear polyfilm adhesive tape. The tape over each well was perforated to ensure an adequate air supply. The plates were then held in a growth chamber at 25° C. and 60% relative humidity for five days (light 14 hours/day).
After the five-day exposure period insecticidal activity for each rate of application of candidate insecticide was assessed as percent inhibition of insect weight relative to the weight of insects from untreated controls, and percent mortality when compared to the total number of insects infested.
The test compounds of formula I are identified by numbers that correspond to those in Table 1.

Row | Structure (SMILES) | Percent Mortality [%]
1 | CSC(=C[N+](=O)[O-])NCCN(CCC(F)(F)F)Cc1ccc(Cl)nc1 [Compound 3] | 50
2 | CSC(=C[N+](=O)[O-])NCCN(CC#N)Cc1ccc(Cl)nc1 [Compound 10] | 17
3 | C=CCN(CCNC(=C[N+](=O)[O-])OC)Cc1ccc(Cl)nc1 [Compound 242] | 83
4 | C#CCN(CCN/C(=C/[N+](=O)[O-])OC)Cc1ccc(Cl)nc1 [Compound 244] | 83
5 | C#CCN(CCNC(=C[N+](=O)[O-])SC)Cc1ccc(Cl)nc1 [Compound 248, {2-[((1Z)-1-methylthio-2-nitrovinyl)amino]ethyl}[(6-chloro(3-pyridyl)methyl]prop-2-ynylamine] | 100

Same assay, conditions: 0.25 millimolar on the surface of the diet; second instar larvae; five-day exposure; insect weight relative to untreated controls

Row | Structure (SMILES) | Percent Growth Inhibition [%]
6 | COC(=C[N+](=O)[O-])NCCN(CCCF)Cc1ccc(Cl)nc1 [Compound 1] | 100
7 | CSC(=C[N+](=O)[O-])NCCN(CCCF)Cc1ccc(Cl)nc1 [Compound 2] | 100
8 | CSC(=C[N+](=O)[O-])NCCN(CCC(F)(F)F)Cc1ccc(Cl)nc1 [Compound 3] | 96
9 | COCCN(CCNC(=C[N+](=O)[O-])SC)Cc1ccc(Cl)nc1 [Compound 4] | 100
10 | CCOCCN(CCNC(=C[N+](=O)[O-])SC)Cc1ccc(Cl)nc1 [Compound 5] | 100
11 | COCCOCCN(CCNC(=C[N+](=O)[O-])OC)Cc1ccc(Cl)nc1 [Compound 6] | 95
12 | COCCOCCN(CCNC(=C[N+](=O)[O-])SC)Cc1ccc(Cl)nc1 [Compound 7] | 99
13 | COCCOCCN(CCNC(=C[N+](=O)[O-])OCCOC)Cc1ccc(Cl)nc1 [Compound 8] | 100
14 | CSC(=C[N+](=O)[O-])NCCN(O)Cc1ccc(Cl)nc1 [Compound 9] | 91
15 | CSC(=C[N+](=O)[O-])NCCN(CC#N)Cc1ccc(Cl)nc1 [Compound 10] | 90
16 | CSC(=C[N+](=O)[O-])NCCN(Cc1ccc(Cl)nc1)CC1CCOC1 (stereo not drawn) [Compound 14] | 100
17 | CSC(=C[N+](=O)[O-])NCCN(Cc1ccc(Cl)nc1)CC1CCCCO1 (stereo not drawn) [Compound 15] | 85
18 | CSC(=C[N+](=O)[O-])NCCN(Cc1ccc(Cl)nc1)Cc1ccsc1 [Compound 17] | 99
19 | CSC(=C[N+](=O)[O-])NCCN(Cc1ccc(Cl)nc1)Cc1ccco1 [Compound 18] | 100
20 | CSC(=C[N+](=O)[O-])NCCN(Cc1ccc(Cl)nc1)Cc1ccoc1 [Compound 19] | 100
21 | CCN(CCNC(=C[N+](=O)[O-])OC)Cc1ccc(Cl)nc1 [Compound 41] | 100
22 | COC(=C[N+](=O)[O-])NCCN(Cc1ccc(Cl)nc1)Cc1ccc(Cl)nc1 [Compound 187] | 50
23 | CC(C)COC(=C[N+](=O)[O-])NCCN(Cc1ccc(Cl)nc1)Cc1ccc(Cl)nc1 [Compound 189] | 100
24 | O=[N+]([O-])C=C(NCCN(Cc1ccc(Cl)nc1)Cc1ccc(Cl)nc1)OCC1CCCCC1 [Compound 190] | 100
25 | CSC(=C[N+](=O)[O-])NCCN(Cc1cccnc1)Cc1ccc(Cl)nc1 [Compound 192] | 92
26 | CSC(=C[N+](=O)[O-])NCCN(Cc1ccc(Cl)nc1)Cc1ccc(Cl)nc1 [Compound 198] | 50
27 | CC(C)CSC(=C[N+](=O)[O-])NCCN(Cc1ccc(Cl)nc1)Cc1ccc(Cl)nc1 [Compound 202] | 100
28 | O=[N+]([O-])C=C(NCCN(Cc1ccc(Cl)nc1)Cc1ccc(Cl)nc1)SCC1CCCCC1 [Compound 203] | 100
29 | C=CCN(CCNC(=C[N+](=O)[O-])SC)Cc1ccc(Cl)nc1 [Compound 220] | 100
30 | C=CCN(CCNC(=C[N+](=O)[O-])SCC1CCCCC1)Cc1ccc(Cl)nc1 [Compound 221] | 100

Row | Structure (SMILES) | Percent Growth Inhibition [%]
31 | C=CCCN(CCNC(=C[N+](=O)[O-])SC)Cc1ccc(Cl)nc1 [Compound 222] | 100
32 | CC=CCN(CCNC(=C[N+](=O)[O-])SC)Cc1ccc(Cl)nc1 [Compound 223] | 98
33 | CSC(=C[N+](=O)[O-])NCCN(CC=CCl)Cc1ccc(Cl)nc1 [Compound 224] | 100
34 | C=C(Cl)CN(CCNC(=C[N+](=O)[O-])SC)Cc1ccc(Cl)nc1 [Compound 225] | 89
35 | CSC(=C[N+](=O)[O-])NCCN(CC=C(Cl)Cl)Cc1ccc(Cl)nc1 [Compound 228] | 100
36 | CSC(=C[N+](=O)[O-])NCCN(CCC(F)=C(F)F)Cc1ccc(Cl)nc1 [Compound 229] | 96
37 | CSC(=C[N+](=O)[O-])NCCN(CC=Cc1ccccc1)Cc1ccc(Cl)nc1 [Compound 230] | 88
38 | C=CCN(CCNC(=N[N+](=O)[O-])SC)Cc1ccc(Cl)nc1 [Compound 231] | 100
39 | C=CCN(CCNC(=C[N+](=O)[O-])OC)Cc1ccc(Cl)nc1 [Compound 242] | 96
40 | C#CCN(CCN/C(=C/[N+](=O)[O-])OC)Cc1ccc(Cl)nc1 [Compound 244] | 100
41 | C#CCN(CCNC(=C[N+](=O)[O-])OCC)Cc1ccc(Cl)nc1 [Compound 245] | 100
42 | C#CCN(CCNC(=C[N+](=O)[O-])OCCOC)Cc1ccc(Cl)nc1 [Compound 246] | 100
43 | C#CCN(CCNC(=C[N+](=O)[O-])OCCOCCOC)Cc1ccc(Cl)nc1 [Compound 247] | 100
44 | C#CCN(CCNC(=C[N+](=O)[O-])SC)Cc1ccc(Cl)nc1 [Compound 248, {2-[((1Z)-1-methylthio-2-nitrovinyl)amino]ethyl}[(6-chloro(3-pyridyl)methyl]prop-2-ynylamine] | 100
45 | C#CCCN(CCNC(=C[N+](=O)[O-])SC)Cc1ccc(Cl)nc1 [Compound 252] | 100
46 | CC#CCN(CCNC(=C[N+](=O)[O-])SC)Cc1ccc(Cl)nc1 [Compound 253] | 100
47 | CC#CCCN(CCNC(=C[N+](=O)[O-])SC)Cc1ccc(Cl)nc1 [Compound 254] | 100
48 | CCCCCC#CCN(CCNC(=C[N+](=O)[O-])SC)Cc1ccc(Cl)nc1 [Compound 255] | 88
49 | C#CCN(CCNC(=C[N+](=O)[O-])OCC1CCCCC1)Cc1ccc(Cl)nc1 [Compound 256] | 100
50 | C#CCN(CCNC(=C[N+](=O)[O-])SCC1CCCCC1)Cc1ccc(Cl)nc1 [Compound 257] | 100
51 | C#CCCN(CCNC(=C[N+](=O)[O-])SCC1CCCCC1)Cc1ccc(Cl)nc1 [Compound 258] | 100
52 | C#CCN(CCNC(=N[N+](=O)[O-])SC)Cc1ccc(Cl)nc1 [Compound 279] | 100
53 | CSC(=C[N+](=O)[O-])NCCN(CCC#Cc1ccc(Cl)cc1)Cc1ccc(Cl)nc1 [Compound 301] | 100
54 | CSC(=C[N+](=O)[O-])NCCN(CC#Cc1ccc(F)cc1)Cc1ccc(Cl)nc1 [Compound 302] | 97

From patent US7977332B2, “Insecticidal N-(heteroarylalkyl)alkanediamine derivatives” (FMC Corporation, priority 2003, dated 2011)
